# Test results taken from US20090170762A1, “Treatment of Diabetes Related Obesity” (UUTech Limited, priority 2005, published 2009).
# Ends that are not written are not given here. * marks the point of attachment. Palmitoyl = CCCCCCCCCCCCCCCC(=O)*
# Legend:
# human GIP-R = biological target: T1, human GIP-R (Homo sapiens, UniProt P48546); assay: Cyclic AMP production in GIP-R transfected CHL cells; type: cell-based; conditions: for inhibition of GIP-stimulated cAMP production: in presence of GIP (10^-7 m); for remaining activity at 0.1 µM: CHL, read-out: cAMP response in presence of 10^-7 M GIP (% GIP max)
# T1 construct: expressed in transfected cells; host or cells: Chinese Hamster Lung (CHL) fibroblast cells, stably transfected
# T1 sequence (P48546 22-466): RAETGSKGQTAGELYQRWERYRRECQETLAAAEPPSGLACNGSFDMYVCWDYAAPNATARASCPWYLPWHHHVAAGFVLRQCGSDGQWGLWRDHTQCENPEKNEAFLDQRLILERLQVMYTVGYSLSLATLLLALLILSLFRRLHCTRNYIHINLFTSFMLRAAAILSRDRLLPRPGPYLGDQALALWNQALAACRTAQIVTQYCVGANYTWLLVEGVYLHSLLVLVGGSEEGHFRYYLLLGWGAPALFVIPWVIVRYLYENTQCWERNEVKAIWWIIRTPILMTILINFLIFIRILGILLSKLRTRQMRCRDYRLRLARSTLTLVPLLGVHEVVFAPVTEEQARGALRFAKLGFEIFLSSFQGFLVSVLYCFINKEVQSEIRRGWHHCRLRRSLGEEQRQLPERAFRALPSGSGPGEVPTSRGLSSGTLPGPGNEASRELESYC
# Protocol: Tissue Culture. […] (v/v) fetal bovine serum, 1% (v/v) antibiotics (100 U/ml penicillin, 0.1 mg/ml streptomycin) (all from Gibco, Paisley, Strathclyde, Scotland). BRIN-BD11 cells were cultured in RPMI-1640 tissue culture medium containing 10% (v/v) fetal bovine serum, 1% (v/v) antibiotics (100 U/ml penicillin, 0.1 mg/ml streptomycin) and 11.1 mm glucose. The origin and secretory characteristics of these cells have been described in detail previously (McClenaghan, N. H. et al., 1996, Diabetes 45:1132-1140). The cells were maintained in sterile tissue culture flasks (Corning Glass Works, Sunderland, UK) at 37° C. in an atmosphere of 5% CO2 and 95% air using a LEEC incubator (Laboratory Technical Engineering, Nottingham, UK).
# Methods. […] The culture medium was removed and cells subsequently washed twice with 2 ml ice-cold HBS buffer (130 mm NaCl, 20 mm HEPES, 0.9 mm NaHPO4, 0.8 mm MgSO4, 5.4 mm KCl, 1.8 mm CaCl2, 5.6 mm glucose and 25 μm phenol red) (pH 7.4). […] The medium was subsequently removed and the cells lysed with […] of lysing solution (5% TCA, 3% SDS, 92% H2O, also containing 0.1 mm unlabelled cAMP and 0.1 mm unlabelled ATP) (Sigma, Poole, Dorset, UK). The plates were then left on a shaker at room temperature for 30 minutes and tritiated cAMP formation determined by column chromatography using Dowex and alumina ion exchange columns (BioRad Life Science Research, Alpha Analytical, Larne, UK) as previously described (Gault, V. A. et al 2002, Biochem. J. 367:913-920).
# BRIN-BD11 cells = assay: Insulin secretion from BRIN-BD11 cells; type: cell-based; conditions: for Maximal insulin response (% GIP max) / Insulin response in presence of 10^-7 M GIP (% GIP max): BRIN-BD11 cells, 5.6 mm glucose; for Maximal insulin response (% GIP max): 20 min; for Insulin response in presence of 10^-7 M GIP (% GIP max): in presence of 10^-7 M native GIP; for effect on GIP-stimulated insulin secretion: in presence of GIP (10^-7 m)
# Protocol: Tissue Culture. Chinese Hamster Lung (CHL) fibroblast cells stably transfected with the human GIP-R were cultured in DMEM tissue culture medium containing 10%. (v/v) fetal bovine serum, 1% (v/v) antibiotics (100 U/ml penicillin, 0.1 mg/ml streptomycin) (all from Gibco, Paisley, Strathclyde, Scotland). BRIN-BD11 cells were cultured in RPMI-1640 tissue culture medium containing 10% (v/v) fetal bovine serum, 1% (v/v) antibiotics (100 U/ml penicillin, 0.1 mg/ml streptomycin) and 11.1 mm glucose. The origin and secretory characteristics of these cells have been described in detail previously (McClenaghan, N. H. et al., 1996, Diabetes 45:1132-1140). The cells were maintained in sterile tissue culture flasks (Corning Glass Works, Sunderland, UK) at 37° C. in an atmosphere of 5% CO2 and 95% air using a LEEC incubator (Laboratory Technical Engineering, Nottingham, UK).
# Methods. Insulin release from BRIN-BD11 cells was determined by use of cell monolayers as described previously (Gault, V. A. et al. 2002, Biochem. J. 367:913-920). In brief, BRIN-BD11 cells were seeded into 24-well plates (Nunc, Roskilde, Denmark) at a density of 1.5×10^5 cells per well and allowed to attach overnight in RPMI-1640 culture medium at 37° C. Acute tests for insulin secretion were preceded by 40 minutes pre-incubation at 37° C. in 1.0 ml Krebs Ringer Bicarbonate Buffer (KRBB, 115 mm NaCl, 4.7 mm KCl, 1.28 mm CaCl2, 1.2 mM MgSO4, 1.2 mm KH2PO4, 25 mM HEPES and 10 mm NaHCO3; pH 7.4 with NaOH) supplemented with 0.1% (w/v) BSA and 1.1 mM glucose. […] After 20 minutes incubation, the buffer was removed and used for measurement of insulin by radioimmunoassay (Flatt, P. R. and Bailey, C. J., 1981, Diabetologia 5:573-577).
# DPP-IV = DPP-IV (Homo sapiens, UniProt P27487); assay: Degradation of GIP and Glu3-substituted GIP analogs by DPP-IV (HPLC); type: in vitro ADME; conditions: for half-life at 2 μm: DPP-IV enzyme (5 mU) in buffer, pH 7.8, incubation with DPP-IV, unit not given (time points in hrs), read-out: Estimated Half-Life (converted); for Intact Peptide Remaining (%) 0 hrs. / remaining at 2 h, 2 μm / remaining at 4 h, 2 μm / remaining at 8 h, 2 μm: incubation with DPP-IV (5 mU), 37°C; for Intact Peptide Remaining (%) 0 hrs.: pH 7.8, 0 hrs; for remaining at 2 h, 2 μm / remaining at 4 h, 2 μm / remaining at 8 h, 2 μm: isolated DPP-IV enzyme (5 mU); for remaining at 2 h, 2 μm: pH 7.8, 2 hrs, read-out: Intact Peptide Remaining (%) 2 hrs.; for remaining at 4 h, 2 μm: pH 7.8, 4 hrs, read-out: Intact Peptide Remaining (%) 4 hrs.; for remaining at 8 h, 2 μm: pH 7.8, 8 hrs, read-out: Intact Peptide Remaining (%) 8 hrs.
# ob/ob mice [1] = assay: 14 once-daily injections of GIP analogues in ob/ob mice; type: in vivo, mouse; conditions: 14 days daily, insulin 50 U/kg
# Protocol: (§1) Animals. Obese diabetic (ob/ob) mice derived from the colony maintained at Aston University, UK (Bailey C. J. et al., 1982, Int. J. Obes. 6:11-21) were used at 14-18 weeks of age. Animals were age-matched, divided into groups and housed individually in an air-conditioned room at 22±2° C. with a 12 hour light: 12 hour dark cycle (08:00-20:00 hr). Drinking water and a standard rodent maintenance diet (Trouw Nutrition, Cheshire, UK) were freely available. All animal experiments were carried out in accordance with the UK Animals (Scientific Procedures) Act 1986.
# Methods. […] Intraperitoneal glucose tolerance (18 mmol/kg body wt) and insulin sensitivity (50 U/kg body wt) tests were performed at the end of the study period. Blood samples taken from the cut tip of the tail vein of conscious mice at the times indicated in the Figures were immediately centrifuged using a Beckman microcentrifuge (Beckman Instruments, UK) for 30 seconds at 13,000×g. The resulting plasma was then aliquoted into fresh Eppendorf tubes and stored at −20° C. prior to glucose and insulin determinations.
# ob/ob mice [2] = assay: Acute antihyperglycaemic and insulin releasing activity with glucose and native GIP in ob/ob mice; type: in vivo, mouse; conditions: 25 nmol/kg i.p. with GIP and glucose 18 mmol/kg, vs native GIP
# Protocol: as §1
# Biochemical analysis. Plasma glucose was assayed by an automated glucose oxidase procedure ([…]) using a Beckman Glucose Analyzer II (Beckman Instruments, Galway, Ireland). Plasma insulin was assayed by radioimmunoassay.
# Methods. […] All test solutions were administered in a final volume of 5 ml/kg body weight. Blood samples were collected from the cut tip of the tail vein of conscious mice into chilled fluoride/heparin coated glucose microcentrifuge tubes (Sarstedt, Numbrecht, Germany) immediately prior to injection and at 15, 30 and 60 minutes post injection. Blood samples were immediately centrifuged using a Beckmnan microcentrifuge (Beckman Instruments, High Wycombe, Buckinghamshire, UK) for 30 seconds at 13,000×g. Plasma glucose was assayed using a Beckman Glucose Analyzer n (Beckman Instruments, High Wycombe, Buckinghamshire, UK) (Stevens, J. F., 1971, Clin. Chim. Acta 32:199-201) and plasma insulin was determined by RIA (Flatt, P. R. and Bailey, C. J., 1981, Diabetologia 5:573-577). All animal studies were carried out in accordance with the UK Animals (Scientific Procedures) Act 1986.
# Chain of DPP-IV (P27487 whole entry, species assumed): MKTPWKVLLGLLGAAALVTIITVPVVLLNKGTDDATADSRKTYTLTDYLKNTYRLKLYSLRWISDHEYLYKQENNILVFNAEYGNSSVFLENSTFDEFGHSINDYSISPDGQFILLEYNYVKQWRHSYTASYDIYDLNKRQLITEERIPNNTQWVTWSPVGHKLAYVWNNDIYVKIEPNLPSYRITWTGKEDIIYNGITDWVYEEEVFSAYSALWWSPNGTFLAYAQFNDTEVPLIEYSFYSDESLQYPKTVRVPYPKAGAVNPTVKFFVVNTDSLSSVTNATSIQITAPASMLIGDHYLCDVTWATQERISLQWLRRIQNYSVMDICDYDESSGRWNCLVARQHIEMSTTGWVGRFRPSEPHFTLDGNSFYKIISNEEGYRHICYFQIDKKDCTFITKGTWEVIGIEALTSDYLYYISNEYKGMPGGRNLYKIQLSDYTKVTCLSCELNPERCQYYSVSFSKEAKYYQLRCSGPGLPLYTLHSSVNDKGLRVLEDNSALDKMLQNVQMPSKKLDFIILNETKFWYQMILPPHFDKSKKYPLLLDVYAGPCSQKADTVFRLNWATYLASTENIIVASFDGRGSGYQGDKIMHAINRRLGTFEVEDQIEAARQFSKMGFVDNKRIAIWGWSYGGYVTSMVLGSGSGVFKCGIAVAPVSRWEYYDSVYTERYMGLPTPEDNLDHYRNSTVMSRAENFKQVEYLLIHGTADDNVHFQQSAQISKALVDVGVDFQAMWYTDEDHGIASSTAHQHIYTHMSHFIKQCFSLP
Substance,EC50 (human GIP-R),cAMP response in presence of 10^-7 M GIP (% GIP max) (human GIP-R; in presence of 10^-7 M native GIP),inhibition of GIP-stimulated cAMP production (human GIP-R),Maximal insulin response (% GIP max) (BRIN-BD11 cells),Insulin response in presence of 10^-7 M GIP (% GIP max) (BRIN-BD11 cells),half-life at 2 μm (DPP-IV),Intact Peptide Remaining (%) 0 hrs. (DPP-IV),"remaining at 2 h, 2 μm (DPP-IV)","remaining at 4 h, 2 μm (DPP-IV)","remaining at 8 h, 2 μm (DPP-IV)",hypoglycemic action of insulin (ob/ob mice [1]),remaining activity at 0.1 µM (human GIP-R),effect on GIP-stimulated insulin secretion (BRIN-BD11 cells),plasma glucose and insulin profiles when administered together with native GIP (ob/ob mice [2]),"resistance to DPP-IV degradation (DPP-IV; words, up to 8 hours incubation)"
YAPGTFISDYSIAMDK(Palmitoyl)IHQQDFVNWLLAQKGKKNDWKHNITQ [(Pro^3)LysPAL^16GIP],870 nM,63 ± 5 % GIP max,similarly inhibited,48 ± 4 % GIP max,61 ± 3 % GIP max,> 8 h,100%,100%,100%,100%,significantly augmented,,,,
YAYGTFISDYSIAMDKIHQQDFVNWLLAQKGKKNDWKHNITQ [(Tyr^3)GIP],1.5 nM,,did not significantly inhibit,75 ± 4 % GIP max,93 ± 2 % GIP max,1.5 h,100%,34.1 ± 4.1%,6.3 ± 3.1%,0%,,76 ± 4%,did not significantly affect,significantly inhibited the action of GIP,
YAKGTFISDYSIAMDKIHQQDFVNWLLAQKGKKNDWKHNITQ [(Lys^3)GIP],2.6 nM,,significantly inhibited,78 ± 3 % GIP max,78 ± 4 % GIP max,1.7 h,100%,41.4 ± 0.3%,14.9 ± 1.1%,0%,,63.5 ± 4%,significantly inhibited,did not significantly alter,significantly more resistant
